Reference: patent publication US8501950B2, “N-cyanoalkylanthranilamides as insecticides” (Syngenta Crop Protection LLC, priority 2006, dated 2013)
Where two headings read alike, the source gives them in different places.

Legend:
[1] = system: Spodoptera littoralis (Egyptian Cotton Leafworm); assay: Example B1: activity against Spodoptera littoralis, sprayed cotton leaf discs, L1 larvae; assay type: in vivo; conditions: foliar, 72 h
Source text: Activity Against Spodoptera littoralis (Egyptian Cotton Leafworm)
Cotton leaf discs are placed on agar in a 24-well microtiter plate and sprayed with test solutions. After drying, the leaf discs are infested with 5 L1 larvae. The samples are checked for mortality, repellent effect, feeding behaviour, and growth inhibition 3 days after treatment (DAT).

[2] = system: Heliothis virescens (Tobacco Budworm); assay: Example B2: activity against Heliothis virescens, eggs on artificial diet; assay type: in vivo; conditions: 96 h
Procedure: Activity Against Heliothis virescens (Tobacco Budworm)
Eggs (0-24 h old) are placed in 24-well microtiter plate on artificial diet and sprayed with test solutions. After an incubation period of 4 days, samples are checked for egg mortality, larval mortality, and growth inhibition.

[3] = system: Plutella xvlostella (Diamond Back Moth); assay: Example B3: activity against Plutella xylostella, L2 larvae on artificial diet; assay type: in vivo; conditions: 120 h
Procedure: Activity Against Plutella xvlostella (Diamond Back Moth)
24-well microtiter plate (MTP) with artificial diet is sprayed with test solutions. After drying, the MTP's are infested with larvae (L2)(10-15 per well). After an incubation period of 5 days, samples are checked for larval mortality, antifeedant and growth inhibition.

[4] = system: Thrips tabaci (Onion Thrips); assay: Example B7: activity against Thrips tabaci, sunflower leaf discs; assay type: in vivo; conditions: foliar, 144 h
Procedure: Activity Against Thrips tabaci (Onion Thrips)
Sunflower leaf discs are placed on agar in a 24-well microtiter plate and sprayed with test solutions. After drying, the leaf discs are infested with a thrips population of mixed ages. After an incubation period of 6 days, samples are checked for mortality and special effects (e.g. phytotoxicity).

[5] = system: Spodoptera littoralis (Cotton Leafworm); assay: Example B9: systemic insecticide test for Spodoptera littoralis, maize seedlings at 12.5 ppm; assay type: in vivo
Procedure: (§1) Systemic Insecticide Test for Spodoptera littoralis (Cotton Leafworm)
[…] Seedlings are allowed to grow for six days. Subsequently leaves are cut and placed in a Petri dish (5 cm diameter), inoculated with twelve to fifteen 1st instar S. littoralis larvae and incubated for four days in a growth chamber (25° C., 50% r.h., 18:6 L:D photo period). Number of alive insects are counted and percentage of dead calculated. Tests were conducted with one replicate.

[6] = system: Cydia pomonella (Codling Moth); assay: Example B10: activity against Cydia pomonella, sprayed diet cubes; assay type: in vivo; conditions: 336 h
Procedure: Activity Against Cydia pomonella (Codling Moth)
Standard Cydia diet cubes (1.5 cm width) are pierced with a tooth-pick and are immersed in liquid paraffin (ca. 80° C.). After the paraffin coat has hardened, an aqueous emulsion containing 12.5 ppm of active ingredient is applied using a De Vilbis sprayer (25 ml, 1 bar). After the spray coating has dried, the cubes are put into plastic containers which are then populated with two freshly hatched Cydia pomonella (1st instar). The containers are then closed with a plastic cap. After 14 days incubation at 26° C. and 40-60% relative humidity, the survival rate of the caterpillars as well as their growth regulation is determined.

[7] = system: Spodoptera littoralis (Cotton Leafworm); assay: Example B11: systemic insecticide test for Spodoptera littoralis, comparison with prior art; assay type: in vivo; conditions: for mortality at 0.0125 ppm / mortality at 0.05 ppm: Spodoptera littoralis, 120 h, read-out: Mortality (%) after 5 days
Source text: as §1
[…] Seedlings are allowed to grow for six days. […] Number of alive insects are counted and percentage of dead calculated.

[8] = system: Frankliniella occidentalis (Western Flower Thrips); assay: Example B12: activity against Frankliniella occidentalis, sprayed bean plants, comparison with prior art; assay type: in vivo; conditions: for inhibition at 12.5 ppm / inhibition at 25 ppm / inhibition at 50 ppm: Frankliniella occidentalis, 288 h, reduction of treated population vs non treated, read-out: Activity (%) after 12 days
Procedure: Activity Against Frankliniella occidentalis (Western Flower Thrips)
Bean plants are treated in a spray chamber with diluted test solutions. After drying they are infested with mixed population. 12 days after the infestation, samples are checked for reduction of treated population and compared to the non treated population.

[9] = system: Diabrotica balteata (Corn Root Worm); assay: Example B4: activity against Diabrotica balteata, L2 larvae on artificial diet; assay type: in vivo; conditions: 120 h, 5 days incubation, read-out: activity (sentence prints only 'over 80%')
Procedure: Activity Against Diabrotica balteata (Corn Root Worm)
24-well microtiter plate (MTP) with artificial diet is sprayed with test solutions. After drying, the MTP's are infested with larvae (L2)(6-10 per well). After an incubation period of 5 days, samples are checked for larval mortality, antifeedant and growth inhibition.

[10] = system: Mvzus persicae (Green Peach Aphid); assay: Example B5: activity against Myzus persicae (contact), sunflower leaf discs; assay type: in vivo; conditions: foliar, 144 h
Procedure: Activity Against Mvzus persicae (Green Peach Aphid): (Contact)
Sunflower leaf discs are placed on agar in a 24-well microtiter plate and sprayed with test solutions. After drying, the leaf discs are infested with an aphid population of mixed ages. After an incubation period of 6 DAT, samples are checked for mortality and special effects (e.g. phytotoxicity).

[11] = system: Myzus persicae (Green Peach Aphid); assay: Example B6: activity against Myzus persicae (systemic), pea seedling roots in test solution; assay type: in vivo; conditions: 144 h
Source text: Activity Against Myzus persicae (Green Peach Aphid): (Systemic)
Roots of pea seedlings, infested with an aphid population of mixed ages, are placed directly in the test solutions. 6 days after introduction, samples are checked for mortality and special effects on the plant.

[12] = system: Tetranychus urticae (Two-Spotted Spider Mite); assay: Example B8: activity against Tetranychus urticae, bean leaf discs; assay type: in vivo
Source text: Activity Against Tetranychus urticae (Two-Spotted Spider Mite)
Bean leaf discs on agar in 24-well microtiter plates are sprayed with test solutions. After drying, the leaf discs are infested with mite populations of mixed ages. 8 days later, discs are checked for egg mortality, larval mortality, and adult mortality.

[13] = 200 ppm, 3 days after treatment, L1 larvae on cotton leaf discs, read-out: mortality
[14] = 200 ppm, 4 days incubation, eggs on artificial diet, read-out: mortality
[15] = 200 ppm, 5 days incubation, L2 larvae, read-out: mortality
[16] = 12.5 ppm in water, systemic via maize seedlings, one replicate, read-out: mortality

| SMILES | mortality at 200 ppm [1] [%] | mortality at 200 ppm [2] [%] | mortality at 200 ppm [3] [%] | pest or weed control at 200 ppm [9] [%] | mortality at 200 ppm [4] [%] | mortality at 12.5 ppm [5] [%] | mortality at 12.5 ppm [6] [%] | further results |
| --- | --- | --- | --- | --- | --- | --- | --- | --- |
| Cc1cc(Cl)cc(C(=O)NC(C)(C#N)C2CC2)c1NC(=O)c1cc(OC(F)F)nn1-c1ncccc1Cl (stereo not drawn) | – | – | – | – | – | – | – | melting point: 197 to 198 °C |
| Cc1cc(I)cc(C(=O)NC(C)(C#N)C2CC2)c1NC(=O)c1cc(OC(F)F)nn1-c1ncccc1Cl (stereo not drawn) | – | – | – | – | – | – | – | melting point: 203 to 204 °C |
| Cc1cc(Cl)cc(C(=O)NC(C)(C#N)C2CC2)c1NC(=O)c1cc(C(F)(F)F)nn1-c1ncccc1Cl (single isomer, unassigned) [Compound T1.1.49a] | – | – | – | – | – | – | – | mortality at 200 ppm [1, 13]: > 80%; mortality at 200 ppm [2, 14]: > 80%; mortality at 200 ppm [3, 15]: > 80%; mortality at 200 ppm ([4]; 200 ppm, 6 days incubation, mixed ages, read-out: mortality): > 80%; mortality at 12.5 ppm [5, 16]: > 80%; mortality at 12.5 ppm ([6]; 12.5 ppm, 14 days incubation at 26° C., read-out: mortality): > 80% |
| Cc1cc(Cl)cc(C(=O)NC(C#N)C2CC2)c1NC(=O)c1cc(C(F)(F)F)nn1-c1ncccc1Cl (stereo not drawn) [A.1.346, reference compound] | – | – | – | – | – | – | – | mortality at 0.0125 ppm [7]: 0%; mortality at 0.05 ppm [7]: 100%; inhibition at 12.5 ppm [8]: 0%; inhibition at 25 ppm [8]: 0%; inhibition at 50 ppm [8]: 0% |
| Cc1cc(Cl)cc(C(=O)NC(C)(C#N)C2CC2)c1NC(=O)c1cc(C(F)(F)F)nn1-c1ncccc1Cl (stereo not drawn) [Compound T1.1.49, 2-(3-chloro-pyridin-2-yl)-5-trifluoromethyl-2H-pyrazole-3-carboxylic acid {4-chloro-2-[(cyano-cyclopropyl-methyl-methyl)-carbamoyl]-6-methyl-phenyl}-amide] | > 80 | > 80 | > 80 | > 80 | > 80 | > 80 | > 80 | mortality at 200 ppm [10]: > 80%; mortality at 0.0125 ppm [7]: 93%; mortality at 0.05 ppm [7]: 100%; insecticidal action compared with the compound from the state of the art (A.1.346) ([7]; Table B11): substantially better insecticidal action; inhibition at 12.5 ppm [8]: 75%; inhibition at 25 ppm [8]: 85%; inhibition at 50 ppm [8]: 90%; insecticidal action compared with the compound from the state of the art (A.1.346) ([8]; Table B12, 50, 25 and 12.5 ppm): substantially better insecticidal action |
| Cc1cc(Cl)cc(C(=O)NC(C)(C#N)C2CC2)c1NC(=O)c1cc(Br)nn1-c1ncccc1Cl (stereo not drawn) [Compound T1.1.50] | > 80 | > 80 | > 80 | > 80 | > 80 | > 80 | > 80 | mortality at 12.5 ppm [11]: > 80% |
| Cc1cc(Cl)cc(C(=O)NC(C)(C#N)C2CC2)c1NC(=O)c1cc(Cl)nn1-c1ncccc1Cl (stereo not drawn) [Compound T1.1.51] | > 80 | > 80 | > 80 | > 80 | > 80 | > 80 | > 80 | – |
| Cc1cc(Cl)cc(C(=O)NC(C)(C#N)C2CC2)c1NC(=O)c1cc(C(F)F)nn1-c1ncccc1Cl (stereo not drawn) [Compound T1.1.52] | > 80 | > 80 | > 80 | > 80 | > 80 | > 80 | > 80 | mortality at 200 ppm [10]: > 80%; mortality at 12.5 ppm [11]: > 80% |
| Cc1cc(Cl)cc(C(=O)NC(C)(C#N)C2CC2)c1NC(=O)c1cc(OCC(F)(F)F)nn1-c1ncccc1Cl (stereo not drawn) [Compound T1.1.53] | > 80 | > 80 | > 80 | > 80 | – | > 80 | > 80 | – |
| COc1cc(C(=O)Nc2c(C)cc(Cl)cc2C(=O)NC(C)(C#N)C2CC2)n(-c2ncccc2Cl)n1 (stereo not drawn) [Compound T1.1.55] | > 80 | > 80 | > 80 | > 80 | – | > 80 | – | mortality at 12.5 ppm [11]: > 80% |
| Cc1cc(I)cc(C(=O)NC(C)(C#N)C2CC2)c1NC(=O)c1cc(C(F)(F)F)nn1-c1ncccc1Cl (stereo not drawn) [Compound T1.1.105] | > 80 | > 80 | > 80 | > 80 | > 80 | > 80 | > 80 | mortality at 200 ppm [10]: > 80% |
| Cc1cc(I)cc(C(=O)NC(C)(C#N)C2CC2)c1NC(=O)c1cc(Br)nn1-c1ncccc1Cl (stereo not drawn) [Compound T1.1.106] | > 80 | > 80 | > 80 | > 80 | – | > 80 | – | – |
| Cc1cc(I)cc(C(=O)NC(C)(C#N)C2CC2)c1NC(=O)c1cc(Cl)nn1-c1ncccc1Cl (stereo not drawn) [Compound T1.1.107] | > 80 | > 80 | > 80 | – | > 80 | > 80 | > 80 | mortality at 200 ppm ([12]; Tetranychus urticae, foliar, 192 h): 80%; activity in words ([12]; in vivo): good activity |
| Cc1cc(I)cc(C(=O)NC(C)(C#N)C2CC2)c1NC(=O)c1cc(C(F)F)nn1-c1ncccc1Cl (stereo not drawn) [Compound T1.1.108] | > 80 | > 80 | > 80 | > 80 | > 80 | – | – | – |
| COc1cc(C(=O)Nc2c(C)cc(I)cc2C(=O)NC(C)(C#N)C2CC2)n(-c2ncccc2Cl)n1 (stereo not drawn) [Compound T1.1.111] | – | – | – | – | – | – | – | mortality at 200 ppm [1, 13]: > 80%; mortality at 200 ppm [2, 14]: > 80%; mortality at 200 ppm [3, 15]: > 80%; mortality at 12.5 ppm [5, 16]: > 80% |
| Cc1cc(Cl)cc(C(=O)NC(C)(C#N)C2CCC2)c1NC(=O)c1cc(C(F)(F)F)nn1-c1ncccc1Cl (stereo not drawn) [Compound T2.1.49] | > 80 | > 80 | > 80 | > 80 | – | – | – | mortality at 12.5 ppm [11]: > 80% |
